Assay in all cases: Antimicrobial activity (MIC), standard method of the Japan Chemotherapeutic Society
Common to all, as to type: cell-based

In one assay the test system is E. coli, NIHJ. The text has this:
(§1) The antimicrobial activity of the compounds obtained in Examples 1 to 3 was examined in accordance with the standard method specified by the Japan Chemotherapeutic Society.

The next assay has as its system Pr. mirabilis, IFO-3849.
Excerpt: as §1

In a further assay the test system is Pr. vulgaris, 08601.
Excerpt: as §1

A further assay concerns Ps. aeruginosa, 32104.
Excerpt: as §1

The next assay has as its system Ps. aeruginosa, 32121.
Excerpt: as §1

Assay [1] relates to Ps. maltophilia, IID-1275.
Excerpt: as §1

Another assay deals with S. aureaus, 870307.
Excerpt: as §1

The next assay relates to S. aureus, 209P.
Excerpt: as §1

Another assay has as its system S. epidermidis, 56500.
Excerpt: as §1

In the next assay the test system is S. flexneli, 2A 5503.
Excerpt: as §1

Another assay has as its system Ser. marcescens, 10100.
Excerpt: as §1

The subject of assay [2] is Str. faecalis, ATCC-19433.
Excerpt: as §1

The test system of a further assay is Str. pyrogenes, G-36.
Excerpt: as §1

[3] abbreviates: Pseudomonas aeruginosa, read-out: MIC.

This note sets out measurements from US6194434A, “Cycloalkylaminomethylpyrrolidine derivatives” (Daiichi Pharmaceutical Co., Ltd., priority 1996, dated 2001).

Values after ≈ are worked out from the molar mass of the structure shown. Read-outs that look alike come from different tables or passages of the source.

For the compound `Cc1c(N2CC[C@H](CNC3CC3)C2)c(F)cc2c(=O)c(C(=O)O)cn([C@@H]3C[C@@H]3F)c12` [Example 1, 7-[3-(R)-Cyclopropylaminomethyl-1-pyrrolidinyl]-6-fluoro-1-[(1R,2S)-2-fluorocyclopropyl]-1,4-dihydro-8-methyl-4-oxoquinoline-3-carboxylic Acid], the MIC with E. coli, NIHJ (Escherichia coli, read-out: MIC) was not above 3 ng/mL; in the assay with Pr. mirabilis, IFO-3849 (Proteus mirabilis, IFO3849, read-out: MIC), 0.025 µg/mL (≈ 0.0599 µM); in the assay with Pr. vulgaris, 08601 (Proteus vulgaris, read-out: MIC), 0.006 µg/mL (≈ 0.0144 µM); in the assay with Ps. aeruginosa, 32104 (setting [3]), 0.2 µg/mL (≈ 0.479 µM); in the assay with Ps. aeruginosa, 32121 (setting [3]), 0.1 µg/mL (≈ 0.24 µM); in assay [1] (Stenotrophomonas maltophilia, IID1275, read-out: MIC), 0.05 µg/mL (≈ 0.12 µM). For the same compound, the MIC in the assay with S. aureaus, 870307 (read-out: MIC) is 0.025 µg/mL (≈ 0.0599 µM); with S. aureus, 209P (Staphylococcus aureus, read-out: MIC) it was not above 3 ng/mL; in the assay on S. epidermidis, 56500 (Staphylococcus epidermidis, read-out: MIC), 0.013 µg/mL (≈ 0.0311 µM); against S. flexneli, 2A 5503, 6 ng/mL (≈ 0.0144 µM); in the assay on Ser. marcescens, 10100 (Serratia marcescens, read-out: MIC), 0.1 µg/mL (≈ 0.24 µM); in assay [2] (Enterococcus faecalis, ATCC19433, read-out: MIC), 0.025 µg/mL (≈ 0.0599 µM). Further, the minimum inhibitory concentration (MIC) in the assay with Str. pyrogenes, G-36 (read-out: MIC) came to 0.013 µg/mL (≈ 0.0311 µM).

Regarding `Cc1c(N2CC[C@H](CNC3CC3)C2)c(F)c(N)c2c(=O)c(C(=O)O)cn([C@@H]3C[C@@H]3F)c12.Cl` [Example 3, 5-Amino-7-[(3R)-N-cyclopropylaminomethyl-1-pyrrolidinyl]-6-fluoro-1-[(1R,2S)-2-fluorocyclopropyl]-1,4-dihydro-8-methyl-4-oxoquinoline-3-carboxylic Acid Hydrochloride], the MIC was found to be 6 ng/mL against E. coli, NIHJ; 0.10 µg/mL in the assay on Pr. mirabilis, IFO-3849; 0.05 µg/mL against Pr. vulgaris, 08601; 0.39 µg/mL in the assay on Ps. aeruginosa, 32104; 0.20 µg/mL with Ps. aeruginosa, 32121; 0.10 µg/mL in assay [1]. The MIC in the assay on S. aureaus, 870307 was 0.025 µg/mL; in the assay on S. aureus, 209P it was not above 3 ng/mL; in the assay on S. epidermidis, 56500, 0.006 µg/mL; with S. flexneli, 2A 5503 (S. flexneli, 2A 5503) it was 6 ng/mL; in the assay on Ser. marcescens, 10100 it was 0.20 µg/mL; in assay [2], 0.05 µg/mL. In addition, the MIC in the assay with Str. pyrogenes, G-36 came to 0.013 µg/mL.

With `COc1c(N2CC[C@H](CNC3CC3)C2)c(F)c(N)c2c(=O)c(C(=O)O)cn([C@@H]3C[C@@H]3F)c12` [Example 2, 5-Amino-7-[3-(R)-(N-cyclopropylaminomethyl)-1-pyrrolidinyl]-6-fluoro-1-[(1R,2S)-2-fluorocyclopropyl]-1,4-dihydro-8-methoxy-4-oxocquinoline-3-carboxylic Acid], the minimal inhibitory concentration (MIC) was determined as 6 ng/mL (≈ 0.0134 µM) against E. coli, NIHJ; 0.20 µg/mL (≈ 0.446 µM) in the assay with Pr. mirabilis, IFO-3849; 0.10 µg/mL (≈ 0.223 µM) against Pr. vulgaris, 08601; 0.78 µg/mL (≈ 1.74 µM) against Ps. aeruginosa, 32104; 0.78 µg/mL (≈ 1.74 µM) in the assay with Ps. aeruginosa, 32121; 0.20 µg/mL (≈ 0.446 µM) in [1]. Further, the MIC against S. aureaus, 870307 was 0.05 µg/mL (≈ 0.111 µM); against S. aureus, 209P, not above 3 ng/mL; against S. epidermidis, 56500, 0.013 µg/mL (≈ 0.029 µM); with S. flexneli, 2A 5503 (S. flexneli, 2A 5503), 13 ng/mL (≈ 0.029 µM); with Ser. marcescens, 10100 it was 0.39 µg/mL (≈ 0.87 µM); in [2], 0.10 µg/mL (≈ 0.223 µM). In the assay with Str. pyrogenes, G-36, the MIC is 0.025 µg/mL (≈ 0.0557 µM).

One may read the MIC as the least concentration at which growth counts as inhibited.
